Results on 1 compound are retold here after article PMC6614840 (2019).

In assay [1] the test system is wild-type lysC aptamer (three-strand smFRET construct LMS/1-5V2/DNA-bi) (RNA, riboswitch, internal amino modifier (N) for Cy5 between 25 and 26 of strand 2; strand 3 is a DNA tether) GCGGUGAAGAUAGAGGUGCGAACUUCAAGAGUAUGCCUUUGGAGAAAGAUGGAUUCUGUGAAAAAGGCUGAAAGGGGAGCGUCGCCGAAGCAAAUAAAACCCCAUCGGUAUUAUUUGCUGGCCGUGCAUUGAAUAAAUGUAAGGCUGUCAAGAAGCAUCGUUCAAGCGUUUUUUAUGCUUGGAAGAUAAGAA/CCGAUGCUUCUUGGAGGGCUAUCUUCACC
The experiment in a line: smFRET histograms. The settings on record: Na+ in place of K+; ligand-bound FRET state not formed efficiently.

Assay [2] has the same test system. Briefly: smFRET kinetics, KD,fold x KD,bind. The settings on record: 100 mM K+, 2 mM Mg2+; 50 mM Tris pH 7.8; apparent.
For assay [3], the system named is BPX variant (G39C) (RNA, riboswitch, internal amino modifier (N) for Cy5 between 25 and 26 of strand 2; strand 3 is a DNA tether) GCGGUGAAGAUAGACGUGCGAACUUCAAGAGUAUGCCUUUGGAGAAAGAUGGAUUCUGUGAAAAAGGCUGAAAGGGGAGCGUCGCCGAAGCAAAUAAAACCCCAUCGGUAUUAUUUGCUGGCCGUGCAUUGAAUAAAUGUAAGGCUGUCAAGAAGCAUCGUUCAAGCGUUUUUUAUGCUUGGAAGAUAAGAA/CCGAUGCUUCUUGGAGGGCUAUCUUCACC
The experiment in a line: smFRET histograms. The settings on record: ligand-bound FRET state not formed even at high Mg2+ or lysine.

Assay [4] has as its system L4X variant (A156/157C) (RNA, riboswitch, internal amino modifier (N) for Cy5 between 25 and 26 of strand 2; strand 3 is a DNA tether) GCGGUGAAGAUAGAGGUGCGAACUUCAAGAGUAUGCCUUUGGAGAAAGAUGGAUUCUGUGAAAAAGGCUGAAAGGGGAGCGUCGCCGAAGCAAAUAAAACCCCAUCGGUAUUAUUUGCUGGCCGUGCAUUGCCUAAAUGUAAGGCUGUCAAGAAGCAUCGUUCAAGCGUUUUUUAUGCUUGGAAGAUAAGAA/CCGAUGCUUCUUGGAGGGCUAUCUUCACC
Briefly: smFRET histograms. The settings on record: ligand-bound FRET state not formed even at high Mg2+ or lysine.

Assay [5] deals with wild-type lysC aptamer (three-strand smFRET construct LMS/1-5V2/DNA-bi) (RNA, riboswitch, internal amino modifier (N) for Cy5 between 25 and 26 of strand 2; strand 3 is a DNA tether) GCGGUGAAGAUAGAGGUGCGAACUUCAAGAGUAUGCCUUUGGAGAAAGAUGGAUUCUGUGAAAAAGGCUGAAAGGGGAGCGUCGCCGAAGCAAAUAAAACCCCAUCGGUAUUAUUUGCUGGCCGUGCAUUGAAUAAAUGUAAGGCUGUCAAGAAGCAUCGUUCAAGCGUUUUUUAUGCUUGGAAGAUAAGAA/CCGAUGCUUCUUGGAGGGCUAUCUUCACC
The experiment in a line: smFRET histograms, global Hill fit of state occupancies. The settings on record: 50 mM Tris pH 7.8.

For assay [6], the system named is L2X variant (G72C-G76C) (RNA, riboswitch, internal amino modifier (N) for Cy5 between 25 and 26 of strand 2; strand 3 is a DNA tether) GCGGUGAAGAUAGAGGUGCGAACUUCAAGAGUAUGCCUUUGGAGAAACUACCAUUCUGUGAAAAAGGCUGAAAGGGGAGCGUCGCCGAAGCAAAUAAAACCCCAUCGGUAUUAUUUGCUGGCCGUGCAUUGAAUAAAUGUAAGGCUGUCAAGAAGCAUCGUUCAAGCGUUUUUUAUGCUUGGAAGAUAAGAA/CCGAUGCUUCUUGGAGGGCUAUCUUCACC
Briefly: smFRET histograms. The settings on record: ligand-bound FRET state not formed even at high Mg2+ or lysine.

For `NCCCC[C@H](N)C(=O)O`, the binding result was “weak” in assay [1], “no” in assay [3], “no” in assay [4] and “no” in assay [6]. Moreover, the “KD, app” value in assay [2] worked out at 11 ± 7 µM. Moreover, the KD in assay [5] (100 mM K+, 2 mM Mg2+, Figure 4 legend prints 4.5 ± 1 μM) was 3 ± 1 µM; in assay [5] (no K+, 10 mM Mg2+, Hill coefficient 1.1 ± 0.2), 850 ± 35 µM.

What is called KD is the concentration at which binding is half-saturated. A low value points to a tighter complex.
